Measured values from PMC8364686, “Safety, tolerability, pharmacokinetics and pharmacodynamics of single oral doses of BI 187004, an inhibitor of 11beta-hydroxysteroid dehydrogenase-1, in healthy male volunteers with overweight or obesity” (Clinical Diabetes and Endocrinology, 2021).
Entries after “also recorded” stand apart in the source; their conditions may differ.

Columns and labels:
[1] = test system: healthy male volunteers with overweight or obesity; test: Safety and tolerability (adverse events, clinical laboratory, vital signs, ECG); format: in vivo, human
Experimental: (§1) Safety and tolerability of BI 187004 were assessed in a descriptive way using the following investigations: recording of adverse events, clinical laboratory parameters (haematology, coagulation, enzymes, substrates, electrolytes, hormones, and urinalysis), vital signs (blood pressure, puls rate), 12-lead ECG (electrocardiogram) with special attention to QTc prolongation, and physical examination (occurrence of findings).

[2] = test system: hypothalamus–pituitary–adrenal axis hormones; test: Hormones of the HPA axis: difference from baseline; format: in vivo, human
Experimental: as §1

## N#Cc1ccc2c(c1)[C@H]1CCCN(C(=O)c3ccc4[nH]cnc4c3)[C@H]1C2 [BI 187004]
[1]; 3 out of 54 subjects receiving BI 187004
  Incidence of headache: 5.6%
[1]; all 9 BI 187004 dose groups (9 subjects)
  Incidence of drug-related adverse events: 16.7%
[1]; all BI 187004 dose groups (15 subjects)
  Subjects reporting at least 1 adverse event: 27.8%
[1]; single oral doses 2.5–360 mg
  Clinical laboratory evaluations, vital signs, ECG findings: No clinically relevant deviations; also recorded: no notable findings
  Deaths, AEs leading to discontinuation, serious AEs: no serious AEs
  Hypoglycemic episodes: No hypoglycemic episodes
  Safety and tolerability: well tolerated and safe; also recorded: safe and well tolerated
[2]; 2.5 mg single oral dose, 24:00
  ACTH mean difference from baseline: 0.59 pmol/L
  Androstenedione mean difference from baseline: 0.2 nmol/L
  Cortisol mean difference from baseline: -77.1 nmol/L
  DHEA-s mean difference from baseline: 0.7 µmol/L
  SHBG mean difference from baseline: 2.6 nmol/L
  Total Testosterone mean difference from baseline: 0.1 nmol/L
[2]; 2.5 mg single oral dose, 96:00
  ACTH mean difference from baseline: -0.46 pmol/L
  Androstenedione mean difference from baseline: -1.8 nmol/L
  Cortisol mean difference from baseline: -65.3 nmol/L
  DHEA-s mean difference from baseline: 2.1 µmol/L
  SHBG mean difference from baseline: -0.1 nmol/L
  Total Testosterone mean difference from baseline: -0.3 nmol/L
[2]; 5 mg single oral dose, 24:00
  ACTH mean difference from baseline: 0.53 pmol/L
  Androstenedione mean difference from baseline: 1.2 nmol/L
  Cortisol mean difference from baseline: 1.8 nmol/L
  DHEA-s mean difference from baseline: 1.6 µmol/L
  SHBG mean difference from baseline: 3.0 nmol/L
  Total Testosterone mean difference from baseline: -0.9 nmol/L
[2]; 5 mg single oral dose, 96:00
  ACTH mean difference from baseline: -1.65 pmol/L
  Androstenedione mean difference from baseline: -3.7 nmol/L
  Cortisol mean difference from baseline: -75.0 nmol/L
  DHEA-s mean difference from baseline: 0.9 µmol/L
  SHBG mean difference from baseline: 2.7 nmol/L
  Total Testosterone mean difference from baseline: -0.7 nmol/L
[2]; 10 mg single oral dose, 24:00
  ACTH mean difference from baseline: 0.78 pmol/L
  Androstenedione mean difference from baseline: 1.3 nmol/L
  Cortisol mean difference from baseline: -78.7 nmol/L
  DHEA-s mean difference from baseline: 1.2 µmol/L
  SHBG mean difference from baseline: 3.4 nmol/L
  Total Testosterone mean difference from baseline: -0.2 nmol/L
[2]; 10 mg single oral dose, 96:00
  ACTH mean difference from baseline: -1.35 pmol/L
  Androstenedione mean difference from baseline: -3.4 nmol/L
  Cortisol mean difference from baseline: -128.8 nmol/L
  DHEA-s mean difference from baseline: 1.9 µmol/L
  SHBG mean difference from baseline: 0.2 nmol/L
  Total Testosterone mean difference from baseline: -2.0 nmol/L
[2]; 20 mg single oral dose, 24:00
  ACTH mean difference from baseline: 1.53 pmol/L
  Androstenedione mean difference from baseline: 3.7 nmol/L
  Cortisol mean difference from baseline: 18.4 nmol/L
  DHEA-s mean difference from baseline: 2.2 µmol/L
  SHBG mean difference from baseline: 2.9 nmol/L
  Total Testosterone mean difference from baseline: -1.3 nmol/L
[2]; 20 mg single oral dose, 96:00
  ACTH mean difference from baseline: -0.58 pmol/L
  Androstenedione mean difference from baseline: 3.8 nmol/L
  Cortisol mean difference from baseline: -34.1 nmol/L
  DHEA-s mean difference from baseline: 2.1 µmol/L
  SHBG mean difference from baseline: 1.3 nmol/L
  Total Testosterone mean difference from baseline: -1.0 nmol/L
[2]; 40 mg single oral dose, 24:00
  ACTH mean difference from baseline: 1.44 pmol/L
  Androstenedione mean difference from baseline: 3.7 nmol/L
  Cortisol mean difference from baseline: -48.8 nmol/L
  DHEA-s mean difference from baseline: 1.7 µmol/L
  SHBG mean difference from baseline: 0.6 nmol/L
  Total Testosterone mean difference from baseline: -0.5 nmol/L
[2]; 40 mg single oral dose, 96:00
  ACTH mean difference from baseline: -0.01 pmol/L
  Androstenedione mean difference from baseline: 0.1 nmol/L
  Cortisol mean difference from baseline: -75.5 nmol/L
  DHEA-s mean difference from baseline: 2.3 µmol/L
  SHBG mean difference from baseline: -1.8 nmol/L
  Total Testosterone mean difference from baseline: -0.8 nmol/L
[2]; 80 mg single oral dose, 24:00
  ACTH mean difference from baseline: 4.69 pmol/L
  Androstenedione mean difference from baseline: 8.1 nmol/L
  Cortisol mean difference from baseline: 102.6 nmol/L
  DHEA-s mean difference from baseline: 2.6 µmol/L
  SHBG mean difference from baseline: 2.1 nmol/L
  Total Testosterone mean difference from baseline: 0.8 nmol/L
[2]; 80 mg single oral dose, 96:00
  ACTH mean difference from baseline: 1.36 pmol/L
  Androstenedione mean difference from baseline: 0.5 nmol/L
  Cortisol mean difference from baseline: -64.4 nmol/L
  DHEA-s mean difference from baseline: 2.4 µmol/L
  SHBG mean difference from baseline: -1.3 nmol/L
  Total Testosterone mean difference from baseline: 0.6 nmol/L
[2]; 160 mg single oral dose, 24:00
  ACTH mean difference from baseline: 1.34 pmol/L
